Laboratory results published in the supplement of paper PMC8617591.

Columns and labels:
[1] = tested on: Mycobacterium tuberculosis Erdman (autoluminescent); experiment: Einf, fitted maximum growth inhibition of three-drug combination (fraction); higher = stronger maximal inhibition
Description: (§1)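 DiaMOND equipotent three-drug combination dose responses (10 doses, 1.5- or 2-fold spacing, centred on IC90) against autoluminescent M. tuberculosis Erdman in 8 in vitro models. Read-out is OD600, or luminescence for the intracellular and dormancy models, normalised to untreated wells. Hill-fit Einf, AUC25 and GRinf are potency metrics; FIC50 and FIC90 are total Loewe fractional inhibitory concentrations as log2 (negative = synergy).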

[2] = tested on: Mycobacterium tuberculosis Erdman (autoluminescent); experiment: GRinf, maximum normalised growth rate inhibition (three-drug combination) (unitless (-1 to 1)); higher = less effect (negative = killing)
Description: as §1

[3] = tested on: Mycobacterium tuberculosis Erdman (autoluminescent); experiment: total FIC50 (Loewe) at 50% inhibition, three-drug combination (log2); higher = more antagonistic
Description: as §1

[4] = tested on: Mycobacterium tuberculosis Erdman (autoluminescent); experiment: AUC25, normalised area under dose response up to IC25 (three-drug combination) (fraction (0-1)); higher = more potent at low dose
Description: as §1

[5] = tested on: Mycobacterium tuberculosis Erdman (autoluminescent); experiment: total FIC90 (Loewe) at 90% inhibition, three-drug combination (log2); higher = more antagonistic
Description: as §1

[6] = in vitro model: acidic pH 5.7, time point: constant (~7 days, model-specific)
[7] = in vitro model: acidic pH 5.7, time point: terminal (~4-5 doublings, model-specific)
[8] = in vitro model: butyrate, time point: constant (~7 days, model-specific)
[9] = in vitro model: butyrate, time point: terminal (~4-5 doublings, model-specific)
[10] = in vitro model: cholesterol 0.05 mM, time point: constant (~7 days, model-specific)
[11] = in vitro model: cholesterol 0.05 mM, time point: terminal (~4-5 doublings, model-specific)
[12] = in vitro model: cholesterol-high 0.2 mM, time point: constant (~7 days, model-specific)
[13] = in vitro model: cholesterol-high 0.2 mM, time point: terminal (~4-5 doublings, model-specific)
[14] = in vitro model: dormancy (butyrate + nitrate, low O2), time point: constant (~7 days, model-specific)
[15] = in vitro model: dormancy (butyrate + nitrate, low O2), time point: terminal (~4-5 doublings, model-specific)
[16] = in vitro model: intracellular J774, time point: constant = terminal
[17] = in vitro model: standard 7H9 glycerol, time point: constant = terminal
[18] = in vitro model: valerate, time point: constant (~7 days, model-specific)
[19] = in vitro model: valerate, time point: terminal (~4-5 doublings, model-specific)

COc1nc2ccc(Br)cc2cc1[C@@H](c1ccccc1)[C@@](O)(CCN(C)C)c1cccc2ccccc12 [bedaquiline] + CC(=O)NC[C@H]1CN(c2ccc(N3CCOCC3)c(F)c2)C(=O)O1 [linezolid] + CO[C@H]1/C=C/O[C@@]2(C)Oc3c(C)c(O)c4c(O)c(c(/C=N/N5CCN(C6CCCC6)CC5)c(O)c4c3C2=O)NC(=O)/C(C)=C\C=C\[C@H](C)[C@H](O)[C@@H](C)[C@@H](O)[C@@H](C)[C@H](OC(C)=O)[C@@H]1C [rifapentine]
Einf [1, 6]: 0.926
Einf [1, 7]: 0.986
Einf [1, 8]: 0.921
Einf [1, 9]: 0.948
Einf [1, 10]: 0.761
Einf [1, 11]: 0.93
Einf [1, 12]: 0.998
Einf [1, 13]: 1
Einf [1, 14]: 0.933
Einf [1, 15]: 0.985
Einf [1, 16]: 0.933
Einf [1, 17]: 0.939
Einf [1, 18]: 0.899
Einf [1, 19]: 0.945
GRinf [2, 6]: -0.244
GRinf [2, 7]: -0.26
GRinf [2, 8]: -0.0254
GRinf [2, 9]: -0.00583
GRinf [2, 10]: -0.281
GRinf [2, 11]: -0.354
GRinf [2, 12]: -0.89
GRinf [2, 13]: -0.637
GRinf [2, 14]: 0.0917
GRinf [2, 15]: -0.095
GRinf [2, 16]: -0.098
GRinf [2, 17]: -0.014
GRinf [2, 18]: -0.197
GRinf [2, 19]: -0.0248
total FIC50 [3, 6]: 0.654
total FIC50 [3, 7]: 0.615
total FIC50 [3, 8]: 0.437
total FIC50 [3, 9]: 0.274
total FIC50 [3, 10]: -0.0889
total FIC50 [3, 11]: 0.0726
total FIC50 [3, 12]: 0.58
total FIC50 [3, 13]: 0.404
total FIC50 [3, 14]: 0.915
total FIC50 [3, 15]: 0.965
total FIC50 [3, 17]: 0.253
total FIC50 [3, 18]: 0.659
total FIC50 [3, 19]: 0.581
AUC25 [4, 6]: 0.108
AUC25 [4, 7]: 0.0848
AUC25 [4, 8]: 0.0812
AUC25 [4, 9]: 0.0511
AUC25 [4, 10]: 0.127
AUC25 [4, 11]: 0.121
AUC25 [4, 12]: 0.0873
AUC25 [4, 13]: 0.1
AUC25 [4, 14]: 0.0901
AUC25 [4, 15]: 0.0384
AUC25 [4, 17]: 0.0734
AUC25 [4, 18]: 0.0755
AUC25 [4, 19]: 0.0423
total FIC90 [5, 7]: 0.662
total FIC90 [5, 8]: -0.119
total FIC90 [5, 9]: -0.145
total FIC90 [5, 11]: 0.0812
total FIC90 [5, 12]: 1.04
total FIC90 [5, 13]: 0.653
total FIC90 [5, 14]: 1.57
total FIC90 [5, 15]: 0.698
total FIC90 [5, 16]: -0.0532
total FIC90 [5, 17]: 0.00862
total FIC90 [5, 19]: 0.338

COc1nc2ccc(Br)cc2cc1[C@@H](c1ccccc1)[C@@](O)(CCN(C)C)c1cccc2ccccc12 [bedaquiline] + CC(=O)NC[C@H]1CN(c2ccc(N3CCOCC3)c(F)c2)C(=O)O1 [linezolid] + CO[C@H]1/C=C/O[C@@]2(C)Oc3c(C)c(O)c4c(O)c(c(/C=N/N5CCN(C)CC5)c(O)c4c3C2=O)NC(=O)/C(C)=C\C=C\[C@H](C)[C@H](O)[C@@H](C)[C@@H](O)[C@@H](C)[C@H](OC(C)=O)[C@@H]1C [rifampicin]
Einf [1, 6]: 0.934
Einf [1, 7]: 0.99
Einf [1, 8]: 0.914
Einf [1, 9]: 0.955
Einf [1, 10]: 0.744
Einf [1, 11]: 0.937
Einf [1, 12]: 0.988
Einf [1, 13]: 1
Einf [1, 14]: 0.941
Einf [1, 15]: 0.982
Einf [1, 16]: 0.93
Einf [1, 17]: 0.938
Einf [1, 18]: 0.895
Einf [1, 19]: 0.953
GRinf [2, 6]: -0.257
GRinf [2, 7]: -0.249
GRinf [2, 8]: -0.0141
GRinf [2, 9]: -0.0153
GRinf [2, 10]: -0.202
GRinf [2, 11]: -0.321
GRinf [2, 12]: -0.655
GRinf [2, 13]: -0.646
GRinf [2, 14]: 0.177
GRinf [2, 15]: -0.387
GRinf [2, 16]: -0.121
GRinf [2, 17]: -0.0288
GRinf [2, 18]: 0.063
GRinf [2, 19]: -0.012
total FIC50 [3, 6]: 0.731
total FIC50 [3, 7]: 0.737
total FIC50 [3, 8]: 0.177
total FIC50 [3, 9]: 0.082
total FIC50 [3, 10]: -0.0465
total FIC50 [3, 11]: 4.18
total FIC50 [3, 12]: 0.47
total FIC50 [3, 13]: 0.65
total FIC50 [3, 14]: 0.618
total FIC50 [3, 15]: 0.272
total FIC50 [3, 17]: 0.312
total FIC50 [3, 18]: 0.886
total FIC50 [3, 19]: 0.712
AUC25 [4, 6]: 0.0983
AUC25 [4, 7]: 0.0798
AUC25 [4, 8]: 0.0847
AUC25 [4, 9]: 0.0706
AUC25 [4, 10]: 0.149
AUC25 [4, 11]: 0.135
AUC25 [4, 12]: 0.095
AUC25 [4, 13]: 0.0921
AUC25 [4, 14]: 0.0823
AUC25 [4, 15]: 0.0706
AUC25 [4, 17]: 0.0714
AUC25 [4, 18]: 0.0495
AUC25 [4, 19]: 0.0389
total FIC90 [5, 7]: 0.559
total FIC90 [5, 8]: -0.362
total FIC90 [5, 9]: -0.195
total FIC90 [5, 11]: -0.205
total FIC90 [5, 12]: 0.612
total FIC90 [5, 13]: 0.504
total FIC90 [5, 14]: 0.781
total FIC90 [5, 15]: 0.748
total FIC90 [5, 16]: -0.0392
total FIC90 [5, 17]: -0.401
total FIC90 [5, 19]: 0.323

COc1nc2ccc(Br)cc2cc1[C@@H](c1ccccc1)[C@@](O)(CCN(C)C)c1cccc2ccccc12 [bedaquiline] + CC(=O)NC[C@H]1CN(c2ccc(N3CCOCC3)c(F)c2)C(=O)O1 [linezolid] + COc1c(N2C[C@@H]3CCCN[C@@H]3C2)c(F)cc2c(=O)c(C(=O)O)cn(C3CC3)c12 [moxifloxacin]
Einf [1, 6]: 0.833
Einf [1, 7]: 0.934
Einf [1, 8]: 0.936
Einf [1, 9]: 0.968
Einf [1, 10]: 0.758
Einf [1, 11]: 0.966
Einf [1, 12]: 0.992
Einf [1, 13]: 1
Einf [1, 14]: 0.921
Einf [1, 15]: 0.989
Einf [1, 16]: 0.862
Einf [1, 17]: 0.971
Einf [1, 18]: 0.902
Einf [1, 19]: 0.947
GRinf [2, 6]: -0.483
GRinf [2, 7]: -0.2
GRinf [2, 8]: -0.0894
GRinf [2, 9]: -0.0714
GRinf [2, 10]: -0.288
GRinf [2, 11]: -0.449
GRinf [2, 12]: -0.761
GRinf [2, 13]: -0.836
GRinf [2, 14]: 0.149
GRinf [2, 15]: -0.0826
GRinf [2, 16]: -0.242
GRinf [2, 17]: -0.102
GRinf [2, 18]: -0.144
GRinf [2, 19]: -0.0335
total FIC50 [3, 6]: 0.265
total FIC50 [3, 7]: 0.43
total FIC50 [3, 8]: 0.691
total FIC50 [3, 9]: 0.693
total FIC50 [3, 10]: 0.224
total FIC50 [3, 11]: -0.0261
total FIC50 [3, 12]: 0.524
total FIC50 [3, 13]: 0.657
total FIC50 [3, 14]: 0.916
total FIC50 [3, 15]: 1.62
total FIC50 [3, 17]: 0.152
total FIC50 [3, 18]: 0.407
total FIC50 [3, 19]: 0.697
AUC25 [4, 6]: 0.108
AUC25 [4, 7]: 0.0466
AUC25 [4, 8]: 0.0949
AUC25 [4, 9]: 0.0643
AUC25 [4, 10]: 0.131
AUC25 [4, 11]: 0.144
AUC25 [4, 12]: 0.11
AUC25 [4, 13]: 0.108
AUC25 [4, 14]: 0.0831
AUC25 [4, 15]: 0.0363
AUC25 [4, 17]: 0.0873
AUC25 [4, 18]: 0.118
AUC25 [4, 19]: 0.0703
total FIC90 [5, 7]: -0.0182
total FIC90 [5, 8]: 0.695
total FIC90 [5, 9]: 0.691
total FIC90 [5, 11]: -0.532
total FIC90 [5, 12]: 0.835
total FIC90 [5, 13]: 1.04
total FIC90 [5, 14]: 0.891
total FIC90 [5, 15]: 1.09
total FIC90 [5, 16]: 1.32
total FIC90 [5, 17]: 0.63
total FIC90 [5, 19]: 0.911
